{
  "source": "PubChem BioAssay AID180",
  "about": "(DTP/NCI, 2004)",
  "test_system": "BDF1 mice, Adenocarcinoma 755 s.c., tumor weight T/C",
  "assay": "NCI In Vivo Anticancer Drug Screen. Data for tumor model Adenocarcinoma 755 (subcutaneous) in B6D2F1 (BDF1) mice",
  "conditions": "endpoint: mean tumor weight, higher = larger tumour",
  "outline": "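Compound activity was tested in mice carrying transplanted tumors. Survival or tumor size was measured, and each value is the treated-group measurement divided by that of the vehicle-treated control group (T/C).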",
  "note": "Values joined by “and” are separate entries in the source; they are usually repeats but may differ in a detail not shown here. Equal entries are not always repeated.",
  "data": [
    {"smiles": "CC(=O)OCC(=O)[C@@]1(O)CC[C@H]2[C@@H]3CCC4=CC(=O)C=C[C@]4(C)[C@H]3C(=O)C[C@@]21C", "values": [
      {"measurement": "T/C", "setting": "dose: 0.9 mg/kg/injection, schedule: Q01DX011 (sc), vehicle: steriod suspending solution", "result": "68 % of control"},
      {"measurement": "T/C", "setting": "dose: 1.7 mg/kg/injection, schedule: Q01DX011 (sc), vehicle: steriod suspending solution", "result": "72 % of control"},
      {"measurement": "T/C", "setting": "dose: 3.5 mg/kg/injection, schedule: Q01DX011 (sc), vehicle: steriod suspending solution", "result": "76 % of control"},
      {"measurement": "T/C", "setting": "dose: 3.7 mg/kg/injection, schedule: Q01DX011 (sc), vehicle: steriod suspending solution", "result": "64 % of control"},
      {"measurement": "T/C", "setting": "dose: 7.0 mg/kg/injection, schedule: Q01DX011 (sc), vehicle: steriod suspending solution", "result": "106 % of control"},
      {"measurement": "T/C", "setting": "dose: 7.1 mg/kg/injection, schedule: Q01DX011 (sc), vehicle: steriod suspending solution", "result": "39 % of control"},
      {"measurement": "T/C", "setting": "dose: 7.5 mg/kg/injection, schedule: Q01DX011 (sc), vehicle: steriod suspending solution", "result": "50 % of control"},
      {"measurement": "T/C", "setting": "dose: 14.0 mg/kg/injection, schedule: Q01DX011 (sc), vehicle: steriod suspending solution", "result": "52 % of control"},
      {"measurement": "T/C", "setting": "dose: 14.3 mg/kg/injection, schedule: Q01DX011 (sc), vehicle: steriod suspending solution", "result": "44 % of control"},
      {"measurement": "T/C", "setting": "dose: 15.0 mg/kg/injection, schedule: Q01DX011 (sc), vehicle: steriod suspending solution", "result": "27 % of control and 33 % of control"},
      {"measurement": "T/C", "setting": "dose: 28.7 mg/kg/injection, schedule: Q01DX011 (sc), vehicle: steriod suspending solution", "result": "19 % of control and 26 % of control and 27 % of control"},
      {"measurement": "T/C", "setting": "dose: 30.0 mg/kg/injection, schedule: Q01DX011 (sc), vehicle: steriod suspending solution", "result": "13 % of control and 16 % of control"},
      {"measurement": "T/C", "setting": "dose: 57.5 mg/kg/injection, schedule: Q01DX011 (sc), vehicle: steriod suspending solution", "result": "3 % of control and 11 % of control and 17 % of control"},
      {"measurement": "T/C", "setting": "dose: 60.0 mg/kg/injection, schedule: Q01DX011 (sc), vehicle: steriod suspending solution", "result": "12 % of control"},
      {"measurement": "T/C", "setting": "dose: 115.0 mg/kg/injection, schedule: Q01DX011 (sc), vehicle: steriod suspending solution", "result": "5 % of control"}
    ]},
    {"smiles": "CC(=O)OCC1OC(n2c(Br)nc3c(N)ncnc32)C(OC(C)=O)C1OC(C)=O", "note": "(stereo not given)", "values": [
      {"measurement": "T/C", "setting": "dose: 30.0 mg/kg/injection, schedule: Q01DX011 (ip), vehicle: carboxymethylcellulose (CMC)", "result": "88 % of control"},
      {"measurement": "T/C", "setting": "dose: 60.0 mg/kg/injection, schedule: Q01DX011 (ip), vehicle: carboxymethylcellulose (CMC)", "result": "88 % of control"},
      {"measurement": "T/C", "setting": "dose: 120.0 mg/kg/injection, schedule: Q01DX011 (ip), vehicle: carboxymethylcellulose (CMC)", "result": "104 % of control"},
      {"measurement": "T/C", "setting": "dose: 240.0 mg/kg/injection, schedule: Q01DX011 (ip), vehicle: carboxymethylcellulose (CMC)", "result": "113 % of control"}
    ]},
    {"smiles": "Cc1ccccc1Nc1cc(=S)nc(N)[nH]1", "values": [
      {"measurement": "T/C", "setting": "dose: 15.0 mg/kg/injection, schedule: Q01DX011 (ip), vehicle: methylcellulose (MC)", "result": "122 % of control"},
      {"measurement": "T/C", "setting": "dose: 31.0 mg/kg/injection, schedule: Q01DX011 (ip), vehicle: methylcellulose (MC)", "result": "91 % of control"},
      {"measurement": "T/C", "setting": "dose: 62.0 mg/kg/injection, schedule: Q01DX011 (ip), vehicle: methylcellulose (MC)", "result": "92 % of control"},
      {"measurement": "T/C", "setting": "dose: 250.0 mg/kg/injection, schedule: Q01DX011 (ip), vehicle: methylcellulose (MC)", "result": "84 % of control"}
    ]},
    {"smiles": "COc1cc(C(=O)[O][Hg][CH2]C2CC(O)CC([CH2][Hg][O]C(=O)c3cc(OC)c(OC)c(OC)c3)O2)cc(OC)c1OC", "note": "(stereo not given)", "values": [
      {"measurement": "T/C", "setting": "dose: 25.0 mg/kg/injection, schedule: Q01DX011 (ip), vehicle: carboxymethylcellulose (CMC)", "result": "61 % of control"}
    ]},
    {"smiles": "O=C1N(Cl)C(=O)C(c2ccc(Cl)cc2)(c2ccc(Cl)cc2)N1Cl", "values": [
      {"measurement": "T/C", "setting": "dose: 7.5 mg/kg/injection, schedule: Q#A X022 (ip), vehicle: saline", "result": "161 % of control"},
      {"measurement": "T/C", "setting": "dose: 15.0 mg/kg/injection, schedule: Q01DX011 (ip), vehicle: saline", "result": "100 % of control"},
      {"measurement": "T/C", "setting": "dose: 15.0 mg/kg/injection, schedule: Q#A X022 (ip), vehicle: saline", "result": "107 % of control"},
      {"measurement": "T/C", "setting": "dose: 30.0 mg/kg/injection, schedule: Q01DX011 (ip), vehicle: saline", "result": "52 % of control"},
      {"measurement": "T/C", "setting": "dose: 30.0 mg/kg/injection, schedule: Q#A X022 (ip), vehicle: saline", "result": "67 % of control"},
      {"measurement": "T/C", "setting": "dose: 45.0 mg/kg/injection, schedule: Q03DX004 (ip), vehicle: saline", "result": "73 % of control"},
      {"measurement": "T/C", "setting": "dose: 60.0 mg/kg/injection, schedule: Q01DX011 (ip), vehicle: saline", "result": "62 % of control"},
      {"measurement": "T/C", "setting": "dose: 60.0 mg/kg/injection, schedule: Q#A X022 (ip), vehicle: saline", "result": "28 % of control"},
      {"measurement": "T/C", "setting": "dose: 90.0 mg/kg/injection, schedule: Q03DX004 (ip), vehicle: saline", "result": "78 % of control"},
      {"measurement": "T/C", "setting": "dose: 120.0 mg/kg/injection, schedule: Q01DX011 (ip), vehicle: saline", "result": "23 % of control and 28 % of control"},
      {"measurement": "T/C", "setting": "dose: 180.0 mg/kg/injection, schedule: Q03DX004 (ip), vehicle: saline", "result": "61 % of control"},
      {"measurement": "T/C", "setting": "dose: 240.0 mg/kg/injection, schedule: Q01DX011 (ip), vehicle: saline", "result": "15 % of control"},
      {"measurement": "T/C", "setting": "dose: 360.0 mg/kg/injection, schedule: Q03DX004 (ip), vehicle: saline", "result": "36 % of control"},
      {"measurement": "T/C", "setting": "dose: 480.0 mg/kg/injection, schedule: Q01DX011 (ip), vehicle: saline", "result": "16 % of control"}
    ]},
    {"smiles": "CS(=O)(=O)OCC(=O)N1CCN(C(=O)COS(C)(=O)=O)CC1", "values": [
      {"measurement": "T/C", "setting": "dose: 25.0 mg/kg/injection, schedule: Q01DX011 (ip), vehicle: methylcellulose (MC)", "result": "63 % of control"},
      {"measurement": "T/C", "setting": "dose: 75.0 mg/kg/injection, schedule: Q01DX011 (ip), vehicle: methylcellulose (MC)", "result": "67 % of control"}
    ]},
    {"smiles": "CS(=O)(=O)OCCC(=O)N1CCN(C(=O)CCOS(C)(=O)=O)CC1", "values": [
      {"measurement": "T/C", "setting": "dose: 9.4 mg/kg/injection, schedule: Q01DX011 (ip), vehicle: methylcellulose (MC)", "result": "73 % of control"},
      {"measurement": "T/C", "setting": "dose: 22.0 mg/kg/injection, schedule: Q01DX011 (ip), vehicle: methylcellulose (MC)", "result": "24 % of control and 45 % of control"},
      {"measurement": "T/C", "setting": "dose: 37.5 mg/kg/injection, schedule: Q01DX011 (ip), vehicle: methylcellulose (MC)", "result": "15 % of control"},
      {"measurement": "T/C", "setting": "dose: 44.0 mg/kg/injection, schedule: Q01DX011 (ip), vehicle: methylcellulose (MC)", "result": "9 % of control and 18 % of control"},
      {"measurement": "T/C", "setting": "dose: 88.0 mg/kg/injection, schedule: Q01DX011 (ip), vehicle: methylcellulose (MC)", "result": "3 % of control and 6 % of control"}
    ]}
  ]
}
